Data reported in the supplement of paper PMC11368000.

Legend:
Conditions in all cases: exposure time: 90 min
[1] = system: 1083 (donor line of iPSC-derived cardiomyocytes); assay: POD (EC95) for loss of peak frequency (asystole) vs vehicle; higher = less potent (higher point of departure)
Method: (§1)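 Human iPSC-derived cardiomyocytes from 16 donors were exposed for 90 min at 37 °C to each PFAS at 0.1, 1, 10 and 100 µM in 0.5% DMSO, 384-well plates. Kinetic Ca2+ flux (FLIPR) and Hoechst nuclei counts were normalised to vehicle wells and fitted with a hierarchical Bayesian Hill model to give donor-specific PODs: EC05 for beat-rate increase or decrease and for decay-to-rise ratio increase (QT proxy), EC95 for peak-frequency loss (asystole), EC10 for total cell number loss. 0.03 µM is the lower bound.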

[2] = system: 11235 (donor line of iPSC-derived cardiomyocytes); assay: as above
Method: as §1

[3] = system: 1368 (donor line of iPSC-derived cardiomyocytes); assay: as above
Method: as §1

[4] = system: 20084 (donor line of iPSC-derived cardiomyocytes); assay: as above
Method: as §1

[5] = system: 30171 (donor line of iPSC-derived cardiomyocytes); assay: as above
Method: as §1

[6] = system: 1309 (donor line of iPSC-derived cardiomyocytes); assay: as above
Method: as §1

[7] = system: 1118 (donor line of iPSC-derived cardiomyocytes); assay: as above
Method: as §1

[8] = system: 1518 (donor line of iPSC-derived cardiomyocytes); assay: as above
Method: as §1

[9] = system: 1531 (donor line of iPSC-derived cardiomyocytes); assay: POD (EC10) for decrease in total cell number (cytotoxicity) vs vehicle; higher = less potent (higher point of departure)
Outline: (§2)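 In 384-well plates, cardiomyocytes made from iPSCs of 16 human donors were cultured for 14 days before a 90 min, 37 °C exposure to final concentrations of 0.1, 1, 10 and 100 µM with 0.5% DMSO. Per-field nuclear counts from MetaXpress, normalised to vehicle, were fitted with hierarchical Bayesian Hill models using a 10% decrease. These fits yielded a cytotoxicity point of departure for each donor.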

[10] = system: 1083; assay: as above
Outline: as §2

[11] = system: 20032 (donor line of iPSC-derived cardiomyocytes); assay: as above
Outline: as §2

[12] = system: 11235; assay: as above
Outline: as §2

[13] = system: 1368; assay: as above
Outline: as §2

[14] = system: 1434 (donor line of iPSC-derived cardiomyocytes); assay: as above
Outline: as §2

[15] = system: 30171; assay: as above
Outline: as §2

[16] = system: 1309; assay: as above
Outline: as §2

[17] = system: 1118; assay: as above
Outline: as §2

[18] = system: 1535 (donor line of iPSC-derived cardiomyocytes); assay: as above
Outline: as §2

[19] = system: 1518; assay: as above
Outline: as §2

[20] = system: 1565 (donor line of iPSC-derived cardiomyocytes); assay: as above
Outline: as §2

Row | Structure (SMILES) | POD vs vehicle [1] [µM] | POD vs vehicle [2] [µM] | POD vs vehicle [3] [µM] | POD vs vehicle [4] [µM] | POD vs vehicle [5] [µM] | POD vs vehicle [6] [µM] | POD vs vehicle [7] [µM] | POD vs vehicle [8] [µM] | POD vs vehicle [9] [µM] | POD vs vehicle [10] [µM] | POD vs vehicle [11] [µM] | POD vs vehicle [12] [µM] | POD vs vehicle [13] [µM] | POD vs vehicle [14] [µM] | POD vs vehicle [15] [µM] | POD vs vehicle [16] [µM] | POD vs vehicle [17] [µM] | POD vs vehicle [18] [µM] | POD vs vehicle [19] [µM] | POD vs vehicle [20] [µM]
1 | CC(O)C(F)(F)C(F)(F)F (stereo not given) [1-Pentafluoroethylethanol] | > 100 | > 100 | > 100 | > 100 | > 100 | > 100 | > 100 | > 100 | > 100 | > 100 | > 100 | > 100 | > 100 | > 100 | > 100 | > 100 | > 100 | > 100 | > 100 | > 100
2 | O=S(=O)(O)C(F)(F)C(F)(F)C(F)(F)C(F)(F)F [Perfluorobutanesulfonic_acid] | > 100 | > 100 | > 100 | > 100 | > 100 | > 100 | > 100 | > 100 | > 100 | > 100 | > 100 | > 100 | > 100 | > 100 | > 100 | > 100 | > 100 | > 100 | > 100 | > 100
3 | O=C(O)C(F)(F)C(F)(F)C(F)(F)C(F)(F)C(F)(F)C(F)(F)C(F)(F)C(F)(F)C(F)(F)F [Perfluorodecanoic_acid] | 74.6 | 67.4 | > 100 | > 100 | 36.5 | > 100 | 9.5 | > 100 | > 100 | > 100 | 5.59 | > 100 | > 100 | 75.8 | > 100 | > 100 | > 100 | > 100 | 67.6 | 81.5
4 | O=S(=O)([O-])C(F)(F)C(F)(F)C(F)(F)C(F)(F)F.[K+] [Potassium_perfluorobutanesulfonate] | > 100 | > 100 | > 100 | > 100 | > 100 | > 100 | > 100 | > 100 | > 100 | > 100 | > 100 | > 100 | > 100 | 53.9 | > 100 | > 100 | > 100 | > 100 | > 100 | > 100
5 | NS(=O)(=O)C(F)(F)C(F)(F)C(F)(F)C(F)(F)C(F)(F)C(F)(F)F [Perfluorohexanesulfonamide] | > 100 | 6.45 | > 100 | > 100 | 49.3 | 90.8 | 7.84 | > 100 | > 100 | > 100 | > 100 | > 100 | > 100 | 20.6 | > 100 | 70.7 | 14.9 | > 100 | > 100 | > 100
6 | O=C(O)C(F)(F)C(F)(F)C(F)(F)F [Perfluorobutanoic_acid] | > 100 | > 100 | > 100 | > 100 | > 100 | > 100 | > 100 | > 100 | > 100 | > 100 | > 100 | > 100 | > 100 | > 100 | > 100 | > 100 | > 100 | > 100 | > 100 | > 100
7 | O=C(O)C(F)(F)C(F)(F)C(F)F [2,2,3,3,4,4-Hexafluorobutanoic_acid] | > 100 | > 100 | > 100 | > 100 | > 100 | > 100 | > 100 | > 100 | > 100 | > 100 | > 100 | > 100 | > 100 | > 100 | 0.125 | > 100 | > 100 | > 100 | > 100 | > 100
8 | O=C(O)C(F)(F)C(F)(F)C(F)(F)OC(F)(C(F)(F)F)C(F)(F)F [Perfluoro-4-isopropoxybutanoic_acid] | > 100 | > 100 | > 100 | > 100 | > 100 | > 100 | > 100 | > 100 | > 100 | > 100 | > 100 | > 100 | > 100 | > 100 | > 100 | > 100 | > 100 | > 100 | > 100 | > 100
9 | O=C(O)C(F)(F)C(F)(F)C(F)(F)C(F)(F)F [Perfluoropentanoic_acid] | > 100 | > 100 | > 100 | > 100 | > 100 | > 100 | > 100 | > 100 | > 100 | > 100 | > 100 | > 100 | > 100 | > 100 | > 100 | > 100 | > 100 | > 100 | > 100 | > 100
10 | NC(=O)C(F)(F)C(F)(F)C(F)(F)F [Heptafluorobutyramide] | > 100 | > 100 | > 100 | > 100 | > 100 | > 100 | > 100 | > 100 | > 100 | > 100 | > 100 | > 100 | > 100 | > 100 | > 100 | > 100 | > 100 | > 100 | > 100 | > 100
